According to US4487770A, “Treatment of diseases of the liver, kidney, colon and rectum” (Nippon Shinyaku Co., Ltd., priority 1981, dated 1984):
Like-named read-outs stand apart in the source and are kept apart here.

Legend:
erythrocytic membrane = experiment: Enhancement of resistance of erythrocytic membrane (hypoosmotic hemolysis); format: cell-based, rat (Sprague-Dawley strain); conditions: for inhibition at 770 µM / hemolysis at 770 µM: Rattus norvegicus, Erythrocyte, 0.5 h; for inhibition at 770 µM: read-out: Percent Inhibition Ratio (hemolysis); for hemolysis at 770 µM: average of five ± S.E., p < 0.05
Protocol: Enhancement of resistance of erythrocytic membrane
Sprague-Dawley strain rats were treated with heparine and blood samples were obtained therefrom. The blood was centrifuged at 3000 rpm for ten minutes to remove blood plasma and then washed with 10 mM phosphate buffer-physiological saline solution (pH 7) to wash erythrocyte. To each volume of blood required to obtain the erythrocyte, 19 volumes of hypoosmotic solution (containing 10 mM phosphate buffer) was added and an erythrocyte suspension (5% erythrocyte suspension) was prepared. With reference to hemolysis, the absorbancy (O.D.) at 540 nm using distilled water as the hypoosmotic solution so that completely hemolyzed was defined as "100% hemolysis".
An erythrocyte suspension with 0.4%/0.45% hypoosmotic saline solution was incubated at 37° C. for 30 minutes, centrifuged at 3000 rpm for 10 minutes, and the percent hemolysis was calculated from the O.D. of the supernatant liquid.

[1] = Acute toxicity test in rats; conditions: rat, in vivo, read-out: LD50 (95% fiducial limits)
Description: (§1) The LD50 values of compound I in ddY strain mice (6 weeks of age) and in Sprague-Dawley strain rats (7 weeks of age) are given in Table 4.

[2] = tested on: hepatic and renal disorders induced by carbon tetrachloride in rats; experiment: Effect on hepatic and renal disorders induced by administration of carbon tetrachloride; format: in vivo, rat (Sprague-Dawley strain); conditions: after CCl4; for Body Weight: average ± S.E., n=10; for Liver Wt.: saline 10.5 ± 1.9; for BUN: saline 56.6 ± 10.6; for GPT: saline 2206 ± 298; for LDH: saline 22425 ± 9211
Protocol: Effect on hepatic and renal disorders induced by administration of carbon tetrachloride
Five groups of male rats of Sprague-Dawley strain (body weight: 200 grams) were used (ten rats per group). All of these rats were given 4 ml/kg of 50% carbon tetrachloride (used with olive oil) by oral route. After 24 hours, the rats were killed by decapitation, and blood was taken and the liver was isolated therefrom. Previously, the rats were fasted for 18 hours before taking blood therefrom. The blood was subjected to quantitative determination of GOT, GPT, LDH and BUN and the weights of isolated livers were measured.
Compound I was given to the rats of four groups, two to six hours after the administration of carbon tetrachloride (in other words, at the time when hepatic and renal disorders caused by carbon tetrachloride had already appeared) at the dose of 5, 10, 25 or 50 mg/kg by oral route. Physiological saline in an amount of 1 ml/kg/day to the rats of the fifth group. Rats of a sixth group that received no carbon tetrachloride, served as a control, and were also autospied, as above.

solubility in water = format: physicochemical
[3] = Acute toxicity test in mice; format: in vivo; conditions: mouse, in vivo, read-out: LD50 (95% fiducial limits)
Description: as §1

ddY strain mice = experiment: Acute toxicity test in mice; format: in vivo; conditions: mice and rats
Description: as §1

[4] = tested on: guinea pigs having colitis caused by amylopectine sulfate; experiment: Effect on colitis induced by administration of amylopectine sulfate (APS); format: in vivo, guinea pig (Hartley strain); conditions: 2 weeks; for Symptom: Colitis Incidence: saline group 100%; for Symptom: Area of Ulcer: saline group 120 ± 24
Protocol: Effect on colitis induced by administration of amylopectine sulfate (according to the method reported in J. Gastroenterology, 67, 473-483, 1974 by Marcus, R and Watt)
Sixty male guinea pigs of Hartley strain (body weight: 200 grams) were used. Among them, fifty guinea pigs were given tap water containing 1% amylopectine sulfate ("APS") as drinking water and were bred for four weeks. (APS contains about 15% sulfur.)
The animals in these five groups were administered 1 ml/kg/day of physiological saline solution and 5, 10, 25 and 50 mg/kg/day of compound I for two weeks by oral route. The other ten guinea pigs were untreated controls and were given untreated tap water as drinking water and were bred for four weeks under the same circumstances as those of the experimental groups.
After two weeks, the animals were killed by overinhalation of ether, the large intestines were removed and the degree of colitis was determined by observing the incidence of ulcers and the area of ulcers with a stereoscopic microscope (×10). The results are given in Table 1, and the changes in body weight during the administration of the compound I is given in the drawing.

intestinal bacteria = experiment: action on intestinal bacteria, standard test by Japan Antibiotic Association
Description: As a mechanism for the resulting colitis by administration of APS, the physico-chemical properties of APS must be involved. […] Therefore, there is no contribution of antibacterial activity in the effect of compound I against colitis. In view of the above, it is clear that the effect of the compound I against colitis is due to the direct protection of large intestinal mucosal cells by compound I.

## Nc1nc(N)nc(-c2cc(Cl)ccc2Cl)n1.O=C(O)/C=C\C(=O)O [Compound I, 2,4-diamino-6-(2', 5'-dichlorophenyl)-s-triazine maleate]
Erythrocytic membrane; 0.77 mM, 0.4 and 0.45% saline
  inhibition of hemolysis (in words): shows inhibition of hemolysis
  protective action to erythrocyte membranes (in words): exhibits protective action to erythrocyte membranes
Erythrocytic membrane; 0.77 mM, 0.4% saline solution
  inhibition at 770 µM: 35.5%
Erythrocytic membrane; 0.77 mM, 0.45% saline solution
  inhibition at 770 µM: 62.2%
Erythrocytic membrane; read-out: Percent Hemolysis Ratio, 0.77 mM, 0.4% saline solution, control 70.8 ± 0.6
  hemolysis at 770 µM: 45.7 ± 1.8%
Erythrocytic membrane; read-out: Percent Hemolysis Ratio, 0.77 mM, 0.45% saline solution, control 27.5 ± 2.1
  hemolysis at 770 µM: 10.4 ± 1.1%
[1]; ip, rats female, intraperitoneal
  LD50: 789 mg/kg
[1]; ip, rats male, intraperitoneal
  LD50: 802 mg/kg
[1]; po, rats female, oral
  LD50: 2920 mg/kg
[1]; po, rats male, oral
  LD50: 2900 mg/kg
[1]; sc, rats female, subcutaneous
  LD50: 1520 mg/kg
[1]; sc, rats male, subcutaneous
  LD50: 1600 mg/kg
[2]; 5 mg/kg oral
  Body Weight: 198.6 ± 0.5 g
  Liver Wt.: 9.6 ± 2.2 g
  BUN: 42.0 ± 9.8 mg/dL
  GPT: 1920 ± 306 Karmen Unit
  LDH: 16341 ± 9009 Wroblewski Unit
[2]; 5 mg/kg oral, saline printed 3,91 ± 361
  GOT: 2215 ± 250 Karmen Unit
[2]; 10 mg/kg oral
  Body Weight: 199.1 ± 0.7 g
  Liver Wt.: 9.5 ± 2.5 g
  BUN: 34.6 ± 7.2 mg/dL
  GPT: 1566 ± 354 Karmen Unit
  LDH: 12209 ± 6214 Wroblewski Unit
[2]; 10 mg/kg oral, p < 0.05 vs saline
  GOT: 1822 ± 249 Karmen Unit
[2]; 25 mg/kg oral
  Body Weight: 200.6 ± 0.6 g
  Liver Wt.: 8.3 ± 1.5 g
  BUN: 31.4 ± 8.8 mg/dL
  LDH: 8054 ± 3666 Wroblewski Unit
[2]; 25 mg/kg oral, p < 0.05
  GPT: 1012 ± 261 Karmen Unit
[2]; 50 mg/kg oral
  Body Weight: 198.6 ± 0.8 g
  Liver Wt.: 7.4 ± 2.0 g
[2]; 50 mg/kg oral, p < 0.05 vs saline
  GOT: 1339 ± 211 Karmen Unit
[2]; 50 mg/kg oral, p < 0.05
  BUN: 29.7 ± 3.5 mg/dL
  GPT: 805 ± 134 Karmen Unit
  LDH: 5003 ± 1642 Wroblewski Unit
[2]; oral
  effect on increase of BUN (in words): inhibited the increase of BUN
  effect on liver weight, GOT, GPT and LDH (in words): depressed the increase of liver weight and the increase in GOT, GPT, and LDH
Solubility in water; saturated solution in water
  solubility at 0.5 h: 770 µM
Solubility in water; water
  solubility in water (in words): hardly soluble in water
[3]; ip, mice female, intraperitoneal
  LD50: 1010 mg/kg
[3]; ip, mice male, intraperitoneal
  LD50: 775 mg/kg
[3]; po, mice female, oral
  LD50: 5700 mg/kg
[3]; po, mice male, oral
  LD50: 6040 mg/kg
[3]; sc, mice female, subcutaneous
  LD50: 3220 mg/kg
[3]; sc, mice male, subcutaneous
  LD50: 2840 mg/kg
ddY strain mice
  safety (LD50 compared with effective dose, in words): highly safe
[4]; 5 mg/kg/day oral
  Average Intake of APS, after administration of Compound I: 0.91 g/kg/2w
  Symptom: Colitis Incidence: 90%
  Symptom: Area of Ulcer: 65 ± 20 mm^2
[4]; 5 mg/kg/day oral, saline group 2 ± 10, control 110 ± 11
  Increase in Body Weight (2-4 wks): 11 ± 12 g
[4]; 10 mg/kg/day oral
  Average Intake of APS, after administration of Compound I: 1.12 g/kg/2w
  Symptom: Colitis Incidence: 80%
  Symptom: Area of Ulcer: 50 ± 24 mm^2
[4]; 10 mg/kg/day oral, saline group 2 ± 10, control 110 ± 11
  Increase in Body Weight (2-4 wks): 26 ± 15 g
[4]; 25 mg/kg/day oral
  Average Intake of APS, after administration of Compound I: 1.26 g/kg/2w
  Symptom: Colitis Incidence: 60%
[4]; 25 mg/kg/day oral, saline group 2 ± 10, p < 0.05
  Increase in Body Weight (2-4 wks): 36 ± 13 g
[4]; 25 mg/kg/day oral, p < 0.05
  Symptom: Area of Ulcer: 43 ± 15 mm^2
[4]; 50 mg/kg/day oral
  Average Intake of APS, after administration of Compound I: 1.24 g/kg/2w
  Symptom: Colitis Incidence: 60%
[4]; 50 mg/kg/day oral, saline group 2 ± 10, p < 0.05
  Increase in Body Weight (2-4 wks): 54 ± 10 g
[4]; 50 mg/kg/day oral, p < 0.05
  Symptom: Area of Ulcer: 34 ± 12 mm^2
[4]; oral
  effect on body weight of afflicted animals (in words, drawing): greatly increases the body weight of the afflicted animals
  effect on colitis (in words): improvement in the colitis followed by increase in body weight was observed
  intake of APS (in words): the intake of APS did not decrease, but rather increased
Intestinal bacteria
  action on intestinal bacteria: does not exhibit any action on intestinal bacteria
